Experimental data published in ChEMBL document CHEMBL4017490, “Design, Synthesis, and Pharmacological Evaluation of Novel Multisubstituted Pyridin-3-amine Derivatives as Multitargeted Protein Kinase Inhibitors for the Treatment of Non-Small Cell Lung Cancer” (J Med Chem, 2017).

How the values were obtained:
[1] = Half life in CD-1 mouse at 5 mg/kg, iv by LC-MS/MS method; format: ADME, organism-based; conditions: in vivo
[2] = Tmax in Sprague-Dawley rat at 20 mg/kg, po by LC-MS/MS method; format: ADME, organism-based; conditions: in vivo
[3] = Tmax in Sprague-Dawley rat at 10 mg/kg, iv by LC-MS/MS method; format: ADME, organism-based; conditions: in vivo
[4] = Cmax in CD-1 mouse at 5 mg/kg, iv by LC-MS/MS method; format: ADME, organism-based; set-up: dose 5 mg/kg, route intravenous; conditions: in vivo
[5] = AUC (0 to t) in Sprague-Dawley rat at 10 mg/kg, iv by LC-MS/MS method; format: ADME, organism-based; conditions: in vivo
[6] = AUC (0 to t) in CD-1 mouse at 20 mg/kg, po by LC-MS/MS method; format: ADME, organism-based; conditions: in vivo
[7] = AUC (0 to t) in CD-1 mouse at 5 mg/kg, iv by LC-MS/MS method; format: ADME, organism-based; conditions: in vivo
[8] = MRT in CD-1 mouse at 20 mg/kg, po by LC-MS/MS method; format: ADME, organism-based; conditions: in vivo
[9] = AUC (0 to infinity) in Sprague-Dawley rat at 20 mg/kg, po by LC-MS/MS method; format: ADME, organism-based; set-up: dose 20 mg/kg, route oral, time infinity; conditions: in vivo
[10] = AUC (0 to infinity) in Sprague-Dawley rat at 10 mg/kg, iv by LC-MS/MS method; format: ADME, organism-based; set-up: dose 10 mg/kg, time infinity, route intravenous; conditions: in vivo
[11] = AUC (0 to infinity) in CD-1 mouse at 20 mg/kg, po by LC-MS/MS method; format: ADME, organism-based; set-up: dose 20 mg/kg, time infinity, route oral; conditions: in vivo
[12] = AUC (0 to infinity) in CD-1 mouse at 5 mg/kg, iv by LC-MS/MS method; format: ADME, organism-based; set-up: dose 5 mg/kg, time infinity, route intravenous; conditions: in vivo
[13] = MRT in CD-1 mouse at 5 mg/kg, iv by LC-MS/MS method; format: ADME, organism-based; conditions: in vivo
[14] = Half life in Sprague-Dawley rat at 20 mg/kg, po by LC-MS/MS method; format: ADME, organism-based; conditions: in vivo
[15] = Half life in Sprague-Dawley rat at 10 mg/kg, iv by LC-MS/MS method; format: ADME, organism-based; conditions: in vivo
[16] = Half life in CD-1 mouse at 20 mg/kg, po by LC-MS/MS method; format: ADME, organism-based; conditions: in vivo
[17] = Oral bioavailability in Sprague-Dawley rat at 20 mg/kg by LC-MS/MS method; format: ADME, organism-based; conditions: in vivo
NCI-H1581 [18] = experiment: Antitumor activity against human NCI-H1581 cells xenografted in nude mouse assessed as tumor growth inhibition at 5 mg/kg, po qd administered for 14 days measured twice per week during compound dosing; format: functional; conditions: 336 h, read-out: TGI
NCI-H1581 [19] = experiment: Antitumor activity against human NCI-H1581 cells xenografted in nude mouse assessed as tumor growth inhibition at 20 mg/kg, po qd administered for 14 days measured twice per week during compound dosing; format: functional; conditions: 336 h, read-out: TGI
[20] = Protein binding in plasma (unknown origin); format: ADME, cell-free; conditions: read-out: PPB (converted)
Mus musculus [21] = experiment: Unbound Cmax in CD-1 mouse at 5 mg/kg, iv by LC-MS/MS method; format: ADME, organism-based; conditions: in vivo
Mus musculus [22] = experiment: Unbound Cmax in CD-1 mouse at 20 mg/kg, po by LC-MS/MS method; format: ADME, organism-based; conditions: in vivo
NCI-H1581 [23] = conditions: Homo sapiens
Description: Antitumor activity against human NCI-H1581 cells xenografted in po dosed nude mouse assessed as tumor growth inhibition administered as qd for 14 days measured twice per week during compound dosing

- half-life [1]: 2.5 h
- Tmax [2]: 1 h
- Tmax [3]: 0.25 h
- Cmax [4]: 106 ng/mL
- AUC(0-t) [5]: 13700 ng·h/mL
- AUC(0-t) [6]: 2400 ng·h/mL
- AUC(0-t) [7]: 289 ng·h/mL
- MRT [8]: 3.59 h
- AUC(0-inf) [9]: 18700 ng·h/mL
- AUC(0-inf) [10]: 13800 ng·h/mL
- AUC(0-inf) [11]: 2410 ng·h/mL
- AUC(0-inf) [12]: 290 ng·h/mL
- MRT [13]: 3.74 h
- half-life [14]: 8 h
- half-life [15]: 2.39 h
- half-life [16]: 2.72 h
- bioavailability [17]: 60%
- fraction unbound [20]: 0.0044
- fCmax (Mus musculus [21]): 1.1 nM
- fCmax (Mus musculus [22]): 10.2 nM
SMILES: Cc1n[nH]c2ccc(-c3cc(N[C@@H](CO)c4ccccc4)cnc3-c3cc(F)ccc3O)cc12
- inhibition in vivo at 5 mg/kg (NCI-H1581 [18]): 37.8%
- inhibition in vivo at 20 mg/kg (NCI-H1581 [19]): 66.1%
- TGI (NCI-H1581 [23]): Dose-dependent effect
